Key:
[1] = system: IL-2 production by OvA-stimulated splenocytes; test: OvA-stimulated production of IL-2 by splenocytes of OvA-immunized mice
Method: The OvA was administered subcutaneously to the crest in a volume of 200 μl. Mice were immunized on day 1 with OvA in complete Freund's adjuvant (CFA; Sigma) and on day 15 with the antigen in incomplete Freund's adjuvant (IFA; Sigma). The immune response was analyzed on day 29. Mice were also immunized with 10 μg/mouse of OvA using Alum as an adjuvant.
Thymuses and spleens from mice of each treatment group were pooled, and then minced with scissors. The minced tissues were suspended in sterile PBS to form cell suspensions, filtered through a double gauze layer and centrifuged. Cells were washed twice with PBS, re-suspended in RPMI-1640 (Sigma) with 2.0 mM of L-glutamine, 50 μM of mercaptoethanol, and 10 μg/ml of gentamycin (complete medium); and cell counts were made. (The splenocyte suspension was washed with a 0.86% solution of NH4Cl to pre-lyse erthrocytes.)
Assessment of Mitogen- and Antigen-Induced Production of Cytokines: Thymic cells (1×10^6/well) in complete medium with 2% FCS were stimulated with ConA (0, 1, and 2 μg/ml). Splenocytes (1×10^6/well) in complete medium with 5% FCS were stimulated with ConA (0, 1, and 5 μg/ml) and with OvA (0-100 μg/ml). […] Supernatants from OvA-stimulated cultures were collected after 72 hours. Supernatants from both cultures were frozen, and kept at 20° C. Concentrations of IL-2, IL-4, IL-10, IL-12R40 and IFNγ in the supernatants were determined by solid-phase EIA with EIA Expansion Kits, available from BD Biosciences (formerly Pharmingen), in accordance with the manufacturer's instructions.

[2] = Indices of humoral immunity (CD20+, IgA, IgM, IgG, CH50, circulating immune complexes) before and after vaccination; conditions: patients with infectious syndrome, hepatitis B vaccination with SCV-07, after vaccination, n = 16, M ± m
Method: This group, which received SCV-07 and hepatitis B vaccine, included thirty-three (33) essentially healthy students from the Chelyabinsk State Medical Academy.
The hepatitis vaccine Engerix-B® produced by SmithKlineBeecham-Biomed (Russia) was administered as a course of 3 doses given at months 0, 1, and 6. Immunological examinations of the subjects were carried out before the first administration of the vaccine and at one month after completion of the course of immunization.
Participants were evaluated to determine levels of leukocytes in peripheral blood, leukocytary formula, the presence of marker specific lymphocytes (CD3, CD4, CD8, CD16, CD95 and CD20), lysosomal activity of neutrophils; oxygen-dependent metabolism with spontaneous and induced hematocrit (HCT) tests, phagocytary function of neutrophils according to the latex particle absorption model; immunoglobulin IgA, IgM, IgG concentrations; total hemolytic activity of complement (CH50) in blood serum and for circulating immune complexes. […] A concentration of 10 MU/liter (l) was assumed to be a protective hepatitis B titer.
The immunomodulator SCV-07 was administered at the same time as the hepatitis B vaccine to determine if SCV-07 increased the efficacy of vaccination and to determine if it would correct the immunity disorders of subjects with infectious syndrome. A one milligram (1 mg) dose of SCV-07 was administered as an intra muscular injection to the 32 subjects of Group 2 of the study on days one to five, where day one was the day the first dose of the hepatitis B vaccine was administered. One (1) mg of SCV-07 was also administered with the second and third doses of vaccine one month and 6 months following administration of the initial vaccine dose. Study participants in Group I received injections of physiological saline which were administered on the same schedule as the SCV-07 to provide a placebo control group.

[3] = OvA/Alum, 0.1 μg/kg i/p, OvA 1 μg/ml
[4] = OvA/Alum, 0.1 μg/kg i/p, OvA 10 μg/ml
[5] = OvA/Alum, 0.1 μg/kg i/p, OvA 25 μg/ml
[6] = OvA/Alum, 0.1 μg/kg i/p, OvA 100 μg/ml
[7] = OvA/Alum, 1.0 μg/kg i/p, OvA 1 μg/ml
[8] = OvA/Alum, 1.0 μg/kg i/p, OvA 10 μg/ml
[9] = OvA/Alum, 1.0 μg/kg i/p, OvA 25 μg/ml
[10] = OvA/Alum, 1.0 μg/kg i/p, OvA 100 μg/ml
[11] = OvA/FA, 0.1 μg/kg i/p, OvA 1 μg/ml
[12] = OvA/FA, 0.1 μg/kg i/p, OvA 10 μg/ml
[13] = OvA/FA, 0.1 μg/kg i/p, OvA 25 μg/ml
[14] = OvA/FA, 0.1 μg/kg i/p, OvA 100 μg/ml
[15] = OvA/FA, 1.0 μg/kg i/p, OvA 1 μg/ml
[16] = OvA/FA, 1.0 μg/kg i/p, OvA 10 μg/ml
[17] = OvA/FA, 1.0 μg/kg i/p, OvA 25 μg/ml
[18] = OvA/FA, 1.0 μg/kg i/p, OvA 100 μg/ml

## N[C@H](CCC(=O)N[C@@H](Cc1c[nH]c2ccccc12)C(=O)O)C(=O)O [SCV-07, γ-D-glutamyl-L-tryptophan]
[1]; [3]
  Production of IL-2 by splenocytes: 190.3 pg/mL
  Production of IL-2 by splenocytes, % (% of control): 116.7%
[1]; [4]
  Production of IL-2 by splenocytes: 87.5 pg/mL
  Production of IL-2 by splenocytes, % (% of control): 53.7%
[1]; [5]
  Production of IL-2 by splenocytes: 83.5 pg/mL
  Production of IL-2 by splenocytes, % (% of control): 51.2%
[1]; [6]
  Production of IL-2 by splenocytes: 84.8 pg/mL
  Production of IL-2 by splenocytes, % (% of control): 52.0%
[1]; OvA/Alum, 0.1 μg/kg per os, OvA 0 μg/ml
  Production of IL-2 by splenocytes: 172.9 pg/mL
[1]; OvA/Alum, 0.1 μg/kg per os, OvA 1 μg/ml
  Production of IL-2 by splenocytes: 163.0 pg/mL
[1]; OvA/Alum, 0.1 μg/kg per os, OvA 10 μg/ml
  Production of IL-2 by splenocytes: 124.5 pg/mL
[1]; OvA/Alum, 0.1 μg/kg per os, OvA 25 μg/ml
  Production of IL-2 by splenocytes: 255.5 pg/mL
[1]; OvA/Alum, 0.1 μg/kg per os, OvA 100 μg/ml
  Production of IL-2 by splenocytes: 90.8 pg/mL
[1]; OvA/Alum, 1.0 μg/kg i/p, OvA 0 μg/ml
  Production of IL-2 by splenocytes: 113.4 pg/mL
[1]; [7]
  Production of IL-2 by splenocytes: 173.7 pg/mL
  Production of IL-2 by splenocytes, % (% of control): 153.2%
[1]; [8]
  Production of IL-2 by splenocytes: 167.9 pg/mL
  Production of IL-2 by splenocytes, % (% of control): 148.1%
[1]; [9]
  Production of IL-2 by splenocytes: 353.8 pg/mL
  Production of IL-2 by splenocytes, % (% of control): 312.0%
[1]; [10]
  Production of IL-2 by splenocytes: 205.8 pg/mL
  Production of IL-2 by splenocytes, % (% of control): 181.5%
[1]; OvA/Alum, 1.0 μg/kg per os, OvA 0 μg/ml
  Production of IL-2 by splenocytes: 160.9 pg/mL
[1]; OvA/Alum, 1.0 μg/kg per os, OvA 1 μg/ml
  Production of IL-2 by splenocytes: 92.8 pg/mL
[1]; OvA/Alum, 1.0 μg/kg per os, OvA 10 μg/ml
  Production of IL-2 by splenocytes: 181.9 pg/mL
[1]; OvA/Alum, 1.0 μg/kg per os, OvA 25 μg/ml
  Production of IL-2 by splenocytes: 121.3 pg/mL
[1]; OvA/Alum, 1.0 μg/kg per os, OvA 100 μg/ml
  Production of IL-2 by splenocytes: 120.2 pg/mL
[1]; OvA/Alum, 10.0 μg/kg per os, OvA 0 μg/ml
  Production of IL-2 by splenocytes: 289.4 pg/mL
[1]; OvA/Alum, 10.0 μg/kg per os, OvA 1 μg/ml
  Production of IL-2 by splenocytes: 551.9 pg/mL
[1]; OvA/Alum, 10.0 μg/kg per os, OvA 10 μg/ml
  Production of IL-2 by splenocytes: 252.5 pg/mL
[1]; OvA/Alum, 10.0 μg/kg per os, OvA 25 μg/ml
  Production of IL-2 by splenocytes: 218.7 pg/mL
[1]; OvA/Alum, 10.0 μg/kg per os, OvA 100 μg/ml
  Production of IL-2 by splenocytes: 300.8 pg/mL
[1]; OvA/FA, 0.1 μg/kg i/p, OvA 0 μg/ml
  Production of IL-2 by splenocytes: 78.4 pg/mL
[1]; [11]
  Production of IL-2 by splenocytes: 10.2 pg/mL
  Production of IL-2 by splenocytes, % (% of control): 13.0%
[1]; [12]
  Production of IL-2 by splenocytes: 72.7 pg/mL
  Production of IL-2 by splenocytes, % (% of control): 92.7%
[1]; [13]
  Production of IL-2 by splenocytes: 85.8 pg/mL
  Production of IL-2 by splenocytes, % (% of control): 109.4%
[1]; [14]
  Production of IL-2 by splenocytes: 95.5 pg/mL
  Production of IL-2 by splenocytes, % (% of control): 121.8%
[1]; OvA/FA, 0.1 μg/kg per os, OvA 0 μg/ml
  Production of IL-2 by splenocytes: 211.8 pg/mL
[1]; OvA/FA, 0.1 μg/kg per os, OvA 1 μg/ml
  Production of IL-2 by splenocytes: 68.7 pg/mL
[1]; OvA/FA, 0.1 μg/kg per os, OvA 10 μg/ml
  Production of IL-2 by splenocytes: 92.9 pg/mL
[1]; OvA/FA, 0.1 μg/kg per os, OvA 25 μg/ml
  Production of IL-2 by splenocytes: 252.5 pg/mL
[1]; OvA/FA, 0.1 μg/kg per os, OvA 100 μg/ml
  Production of IL-2 by splenocytes: 94.8 pg/mL
[1]; OvA/FA, 1.0 μg/kg i/p, OvA 0 μg/ml
  Production of IL-2 by splenocytes: 147.7 pg/mL
[1]; [15]
  Production of IL-2 by splenocytes: 116.5 pg/mL
  Production of IL-2 by splenocytes, % (% of control): 78.9%
[1]; [16]
  Production of IL-2 by splenocytes: 317.3 pg/mL
  Production of IL-2 by splenocytes, % (% of control): 214.8%
[1]; [17]
  Production of IL-2 by splenocytes: 363.1 pg/mL
  Production of IL-2 by splenocytes, % (% of control): 245.8%
[1]; [18]
  Production of IL-2 by splenocytes: 564.4 pg/mL
  Production of IL-2 by splenocytes, % (% of control): 382.1%
[1]; OvA/FA, 1.0 μg/kg per os, OvA 0 μg/ml
  Production of IL-2 by splenocytes: 122.4 pg/mL
[1]; OvA/FA, 1.0 μg/kg per os, OvA 1 μg/ml
  Production of IL-2 by splenocytes: 82.7 pg/mL
[1]; OvA/FA, 1.0 μg/kg per os, OvA 10 μg/ml
  Production of IL-2 by splenocytes: 304.2 pg/mL
[1]; OvA/FA, 1.0 μg/kg per os, OvA 25 μg/ml
  Production of IL-2 by splenocytes: 152.9 pg/mL
[1]; OvA/FA, 1.0 μg/kg per os, OvA 100 μg/ml
  Production of IL-2 by splenocytes: 282.8 pg/mL
[1]; OvA/FA, 10.0 μg/kg per os, OvA 0 μg/ml
  Production of IL-2 by splenocytes: 163 pg/mL
[1]; OvA/FA, 10.0 μg/kg per os, OvA 1 μg/ml
  Production of IL-2 by splenocytes: 80.2 pg/mL
[1]; OvA/FA, 10.0 μg/kg per os, OvA 10 μg/ml
  Production of IL-2 by splenocytes: 305.4 pg/mL
[1]; OvA/FA, 10.0 μg/kg per os, OvA 25 μg/ml
  Production of IL-2 by splenocytes: 287.2 pg/mL
[1]; OvA/FA, 10.0 μg/kg per os, OvA 100 μg/ml
  Production of IL-2 by splenocytes: 478.2 pg/mL
[2]
  CD20+ %: 15.93 ± 1.20%
  CH50, conv. units: 64.53 ± 4.11 conv. units
  CIC, conv. units: 53.93 ± 8.03 conv. units
  IgA: 1.821 ± 0.087 g/L
  IgG: 8.931 ± 0.481 g/L
  IgM: 1.179 ± 0.089 g/L
